Assay: Kinetic solubility of compound at pH 6.8
Format: physicochemical
Settings: buffer

With `CC(=O)N[C@H]1Cc2cccc(c2)Oc2cccc(c2)C[C@@H](C(=O)NCC(F)(F)F)NC(=O)[C@H](CCc2ccccc2)NC1=O` as the molecule, how does the Kinetic_solubility read?
Its Kinetic_solubility is < 1.4 µg/mL.

With `O=C(NCC(F)(F)F)[C@@H]1Cc2cccc(c2)Oc2cccc(c2)C[C@H](N2CCCC2=O)C(=O)N[C@@H](CCc2ccccc2)C(=O)N1` as the molecule, how does the Kinetic_solubility read?
The Kinetic_solubility was 3.8 µg/mL.

With `Cn1cc(CNC(=O)[C@@H]2Cc3cccc(c3)Oc3cccc(c3)C[C@H](N3CCCS3(=O)=O)C(=O)N[C@@H](CCN3CCCCC3)C(=O)N2)cn1` as the molecule, how does the Kinetic_solubility read?
Its Kinetic_solubility is > 140 µg/mL.

With `O=C(NCC(F)(F)F)[C@@H]1Cc2cccc(c2)Oc2cccc(c2)C[C@H](N2CCCC2=O)C(=O)N[C@@H](CCN2CCC(F)(F)CC2)C(=O)N1` as the molecule, how does the Kinetic_solubility read?
Its Kinetic_solubility is > 140 µg/mL.

With `CC(=O)N[C@H]1Cc2cccc(c2)Oc2cccc(c2)C[C@@H](C(=O)NCC(F)(F)F)NC(=O)[C@H](CCC(F)(F)F)NC1=O` as the molecule, how does the Kinetic_solubility read?
The Kinetic_solubility was < 1.2 µg/mL.

For `O=C(NCC(F)(F)F)[C@@H]1Cc2cccc(c2)Oc2cccc(c2)C[C@H](N2CCCC2=O)C(=O)N[C@@H](CCN2CCC[C@@H](F)C2)C(=O)N1`, which Kinetic_solubility is on record?
Its Kinetic_solubility is > 130 µg/mL.

Which Kinetic_solubility does the source give for `COC[C@@H]1NC(=O)[C@@H](NC(C)=O)Cc2cccc(c2)Oc2cccc(c2)C[C@@H](C(=O)NCC(F)(F)F)NC1=O` here?
Its Kinetic_solubility is 14 µg/mL.

For `C[C@H](NC(=O)[C@@H]1Cc2cccc(c2)Oc2cccc(c2)C[C@H](N2CCCC2=O)C(=O)N[C@@H](CCN2CCCCC2)C(=O)N1)C1CC1`, which Kinetic_solubility is on record?
The Kinetic_solubility was > 120 µg/mL.

For `O=C(NCC(F)(F)F)[C@@H]1Cc2cccc(c2)Oc2cccc(c2)C[C@H](N2CCCC2=O)C(=O)N[C@@H](Cc2ccccc2)C(=O)N1`, which Kinetic_solubility is on record?
Its Kinetic_solubility is 22 µg/mL.

With `CN1C(=O)[C@H](CCc2ccccc2)NC(=O)[C@@H](N2CCCC2=O)Cc2cccc(c2)Oc2cccc(c2)C[C@H]1C(=O)NCC(F)(F)F` as the molecule, how does the Kinetic_solubility read?
The Kinetic_solubility was 4.2 µg/mL.

For `CC(=O)N[C@H]1Cc2cccc(c2)Oc2cccc(c2)C[C@@H](C(=O)NCC(F)(F)F)NC(=O)[C@H](CC(C)C)NC1=O`, which Kinetic_solubility is on record?
Its Kinetic_solubility is < 1.4 µg/mL.

With `O=C(NC1CCCC1)[C@@H]1Cc2cccc(c2)Oc2cccc(c2)C[C@H](N2CCCS2(=O)=O)C(=O)N[C@@H](CCN2CCOCC2)C(=O)N1` as the molecule, how does the Kinetic_solubility read?
Its Kinetic_solubility is > 130 µg/mL.

With `O=C(NCC(F)(F)F)[C@@H]1Cc2cccc(c2)Oc2cccc(c2)C[C@H](N2CCOC2=O)C(=O)N[C@@H](CCN2CCCCC2)C(=O)N1` as the molecule, how does the Kinetic_solubility read?
The Kinetic_solubility was 65 µg/mL.

With `Cn1cc(CNC(=O)[C@@H]2Cc3cccc(c3)Oc3cccc(c3)C[C@H](N3CCCC3=O)C(=O)N[C@@H](CCN3CCCCC3)C(=O)N2)cn1` as the molecule, how does the Kinetic_solubility read?
Its Kinetic_solubility is > 150 µg/mL.

Which Kinetic_solubility does the source give for `O=C(NC1CCCC1)[C@@H]1Cc2cccc(c2)Oc2cccc(c2)C[C@H](N2CCCC2=O)C(=O)N[C@@H](CCN2CCCCC2)C(=O)N1` here?
Its Kinetic_solubility is > 140 µg/mL.

Which Kinetic_solubility does the source give for `O=C(NCC1CC1)[C@@H]1Cc2cccc(c2)Oc2cccc(c2)C[C@H](N2CCCC2=O)C(=O)N[C@@H](CCN2CCCCC2)C(=O)N1` here?
The Kinetic_solubility was > 130 µg/mL.

Which Kinetic_solubility does the source give for `O=C(NCC1CC1)[C@@H]1Cc2cccc(c2)Oc2cccc(c2)C[C@H](N2CCCC2=O)C(=O)N[C@@H](CCN2CCOCC2)C(=O)N1` here?
Its Kinetic_solubility is > 130 µg/mL.

With `CCC[C@@H]1NC(=O)[C@@H](NC(C)=O)Cc2cccc(c2)Oc2cccc(c2)C[C@@H](C(=O)NCC(F)(F)F)NC1=O` as the molecule, how does the Kinetic_solubility read?
Its Kinetic_solubility is < 1.9 µg/mL.

For `CN1C(=O)[C@H](CCc2ccccc2)N(C)C(=O)[C@@H](N2CCCC2=O)Cc2cccc(c2)Oc2cccc(c2)C[C@H]1C(=O)NCC(F)(F)F`, which Kinetic_solubility is on record?
Its Kinetic_solubility is 4 µg/mL.

Which Kinetic_solubility does the source give for `CC1(CNC(=O)[C@@H]2Cc3cccc(c3)Oc3cccc(c3)C[C@H](N3CCCC3=O)C(=O)N[C@@H](CCN3CCCCC3)C(=O)N2)CC1` here?
Its Kinetic_solubility is > 130 µg/mL.

With `Cn1cc(CNC(=O)[C@@H]2Cc3cccc(c3)Oc3cccc(c3)C[C@H](NS(C)(=O)=O)C(=O)N[C@@H](CCN3CCCCC3)C(=O)N2)cn1` as the molecule, how does the Kinetic_solubility read?
Its Kinetic_solubility is > 140 µg/mL.

With `C[C@@H](NC(=O)[C@@H]1Cc2cccc(c2)Oc2cccc(c2)C[C@H](N2CCCC2=O)C(=O)N[C@@H](CCN2CCCCC2)C(=O)N1)C1CC1` as the molecule, how does the Kinetic_solubility read?
Its Kinetic_solubility is > 140 µg/mL.

With `O=C(NCC(F)(F)F)[C@@H]1Cc2cccc(c2)Oc2cccc(c2)C[C@H](N2CCCC2=O)C(=O)N[C@@H](CCN2CCCCC2)C(=O)N1` as the molecule, how does the Kinetic_solubility read?
The Kinetic_solubility was > 140 µg/mL.
